Laboratory results as given in ChEMBL document CHEMBL4765362, “Thirty Years of HDAC Inhibitors: 2020 Insight and Hindsight” (J Med Chem, 2020).

Experiments:
Histone deacetylase 5 = Histone deacetylase 5 (Homo sapiens, UniProt Q9UQL6); assay: Inhibition of human HDAC5 using acetyl-lysine tripeptide as substrate preincubated for 10 mins followed by substrate addition and shaken for 5 secs and measured over 30 mins
Histone deacetylase 4 = Histone deacetylase 4 (Homo sapiens, UniProt P56524); assay: Inhibition of human HDAC4 expressed in baculovirus infected sf9 cells using acetyl-lysine tripeptide as substrate preincubated for 10 mins followed by substrate addition and shaken for 5 secs and measured over 30 mins
Histone deacetylase 7 = target: T1, Histone deacetylase 7 (Homo sapiens, UniProt Q8WUI4); assay: Inhibition of human N-terminal GST-tagged HDAC7 (518 to end residues) expressed in baculovirus infected sf9 cells using acetyl-lysine tripeptide as substrate preincubated for 10 mins followed by substrate addition and shaken for 5 secs and measured over 30 mins
T1 sequence (Q8WUI4 whole entry): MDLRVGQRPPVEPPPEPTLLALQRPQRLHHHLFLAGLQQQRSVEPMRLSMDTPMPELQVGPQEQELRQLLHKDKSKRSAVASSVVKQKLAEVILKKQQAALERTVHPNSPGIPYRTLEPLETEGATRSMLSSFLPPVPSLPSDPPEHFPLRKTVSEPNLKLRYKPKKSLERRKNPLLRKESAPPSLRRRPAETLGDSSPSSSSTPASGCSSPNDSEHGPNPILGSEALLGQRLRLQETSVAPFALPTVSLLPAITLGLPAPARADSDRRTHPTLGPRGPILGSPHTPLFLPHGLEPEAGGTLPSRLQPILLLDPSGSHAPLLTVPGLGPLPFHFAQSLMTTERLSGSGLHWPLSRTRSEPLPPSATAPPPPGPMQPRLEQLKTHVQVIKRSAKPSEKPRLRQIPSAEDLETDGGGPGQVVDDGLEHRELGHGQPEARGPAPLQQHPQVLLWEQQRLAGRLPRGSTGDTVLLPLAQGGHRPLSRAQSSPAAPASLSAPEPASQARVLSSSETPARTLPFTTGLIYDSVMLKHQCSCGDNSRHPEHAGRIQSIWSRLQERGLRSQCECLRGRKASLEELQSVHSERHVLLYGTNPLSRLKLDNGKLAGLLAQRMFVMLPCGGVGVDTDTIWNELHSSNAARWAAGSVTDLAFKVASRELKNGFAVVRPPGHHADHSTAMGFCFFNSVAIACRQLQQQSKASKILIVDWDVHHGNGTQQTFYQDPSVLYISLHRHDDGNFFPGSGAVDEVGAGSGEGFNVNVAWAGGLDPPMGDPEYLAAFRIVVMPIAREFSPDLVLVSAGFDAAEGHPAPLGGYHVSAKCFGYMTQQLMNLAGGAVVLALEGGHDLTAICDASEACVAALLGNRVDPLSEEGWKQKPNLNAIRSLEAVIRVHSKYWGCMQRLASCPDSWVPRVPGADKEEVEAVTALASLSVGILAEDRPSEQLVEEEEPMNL

[1] = target: T2, Protein deacetylase HDAC6 (Homo sapiens, UniProt Q9UBN7); assay: Inhibition of HDAC6 (unknown origin) using acetyl-lysine tripeptide as substrate preincubated for 10 mins followed by substrate addition and shaken for 5 secs and measured over 30 mins
T2 sequence (Q9UBN7 whole entry): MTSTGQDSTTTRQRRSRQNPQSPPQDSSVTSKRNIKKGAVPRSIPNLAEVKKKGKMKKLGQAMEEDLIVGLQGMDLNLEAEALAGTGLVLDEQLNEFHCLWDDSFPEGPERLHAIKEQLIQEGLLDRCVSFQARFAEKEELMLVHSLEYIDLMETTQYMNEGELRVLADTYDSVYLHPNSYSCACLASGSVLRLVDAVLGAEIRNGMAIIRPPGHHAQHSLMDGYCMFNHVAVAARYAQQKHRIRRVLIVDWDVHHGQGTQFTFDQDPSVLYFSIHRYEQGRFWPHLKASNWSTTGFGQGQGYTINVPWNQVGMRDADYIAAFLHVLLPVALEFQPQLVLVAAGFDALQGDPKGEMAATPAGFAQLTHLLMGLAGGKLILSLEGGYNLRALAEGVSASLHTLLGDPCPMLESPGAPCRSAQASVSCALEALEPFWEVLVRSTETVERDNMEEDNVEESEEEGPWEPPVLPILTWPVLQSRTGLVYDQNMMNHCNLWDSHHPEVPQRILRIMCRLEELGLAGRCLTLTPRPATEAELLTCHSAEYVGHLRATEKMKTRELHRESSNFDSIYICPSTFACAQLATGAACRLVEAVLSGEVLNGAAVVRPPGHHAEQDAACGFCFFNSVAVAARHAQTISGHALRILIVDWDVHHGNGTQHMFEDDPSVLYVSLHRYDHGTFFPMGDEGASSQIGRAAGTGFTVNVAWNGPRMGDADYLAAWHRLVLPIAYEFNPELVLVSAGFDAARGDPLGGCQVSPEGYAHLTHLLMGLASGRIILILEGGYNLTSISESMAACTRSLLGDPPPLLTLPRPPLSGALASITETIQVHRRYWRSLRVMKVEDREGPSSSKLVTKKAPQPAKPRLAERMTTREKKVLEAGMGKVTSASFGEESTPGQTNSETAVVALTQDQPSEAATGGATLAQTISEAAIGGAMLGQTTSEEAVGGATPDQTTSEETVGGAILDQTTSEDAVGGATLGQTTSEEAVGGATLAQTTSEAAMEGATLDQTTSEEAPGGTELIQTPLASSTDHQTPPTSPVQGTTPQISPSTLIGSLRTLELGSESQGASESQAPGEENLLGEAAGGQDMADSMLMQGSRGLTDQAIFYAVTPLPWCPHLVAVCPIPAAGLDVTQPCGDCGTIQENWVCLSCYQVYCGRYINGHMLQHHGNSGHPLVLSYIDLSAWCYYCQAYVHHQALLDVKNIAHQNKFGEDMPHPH

Histone deacetylase 9 = Histone deacetylase 9 (Homo sapiens, UniProt Q9UKV0); assay: Inhibition of C-terminal His-tagged human HDAC9 (604 to 1066 residues) expressed in baculovirus infected sf9 cells using acetyl-lysine tripeptide as substrate preincubated for 10 mins followed by substrate addition and shaken for 5 secs and measured over 30 mins
Histone deacetylase 2 = Histone deacetylase 2 (Homo sapiens, UniProt Q92769); assay: Inhibition of human HDAC2 expressed in Sf9 cells using acetyl-lysine tripeptide as substrate preincubated for 10 mins followed by substrate addition and shaken for 5 secs and measured over 30 mins
Histone deacetylase 8 = target: T3, Histone deacetylase 8 (Homo sapiens, UniProt Q9BY41); assay: Inhibition of recombinant human C-terminal His-tagged HDAC8 expressed in baculovirus infected sf9 cells using acetyl-lysine tripeptide as substrate preincubated for 10 mins followed by substrate addition and shaken for 5 secs and measured over 30 mins
T3 sequence (Q9BY41 whole entry): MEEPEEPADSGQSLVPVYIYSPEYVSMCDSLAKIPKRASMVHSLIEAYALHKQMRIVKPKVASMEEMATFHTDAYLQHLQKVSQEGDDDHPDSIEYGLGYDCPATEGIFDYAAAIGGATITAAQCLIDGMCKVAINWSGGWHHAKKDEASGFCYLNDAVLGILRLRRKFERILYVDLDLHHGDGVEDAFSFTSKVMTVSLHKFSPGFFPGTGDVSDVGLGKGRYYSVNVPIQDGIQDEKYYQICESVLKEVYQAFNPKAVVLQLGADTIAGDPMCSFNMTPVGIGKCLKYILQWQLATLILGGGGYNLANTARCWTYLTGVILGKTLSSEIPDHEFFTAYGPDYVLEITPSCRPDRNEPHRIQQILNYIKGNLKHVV

[2] = target: Histone deacetylase 3/Nuclear receptor corepressor 2 (HDAC3/NCoR2) (Homo sapiens, UniProt O15379); assay: Inhibition of His-tagged GST-fused human HDAC3/NcoR2 expressed in sf9 cells using acetyl-lysine tripeptide as substrate preincubated for 10 mins followed by substrate addition and shaken for 5 secs and measured over 30 mins
[3] = target: T4, Polyamine deacetylase HDAC10 (Danio rerio, UniProt F1QCV2); assay: Inhibition of zebrafish HDAC10 (2 to 675 residues) expressed in Escherichia coli BL21(DE3) cells using N-acetylputrescine as substrate preincubated for 10 mins followed by substrate and measured after 45 to 60 mins by liquid chromatography-mass spectrometry
T4 sequence (F1QCV2 whole entry): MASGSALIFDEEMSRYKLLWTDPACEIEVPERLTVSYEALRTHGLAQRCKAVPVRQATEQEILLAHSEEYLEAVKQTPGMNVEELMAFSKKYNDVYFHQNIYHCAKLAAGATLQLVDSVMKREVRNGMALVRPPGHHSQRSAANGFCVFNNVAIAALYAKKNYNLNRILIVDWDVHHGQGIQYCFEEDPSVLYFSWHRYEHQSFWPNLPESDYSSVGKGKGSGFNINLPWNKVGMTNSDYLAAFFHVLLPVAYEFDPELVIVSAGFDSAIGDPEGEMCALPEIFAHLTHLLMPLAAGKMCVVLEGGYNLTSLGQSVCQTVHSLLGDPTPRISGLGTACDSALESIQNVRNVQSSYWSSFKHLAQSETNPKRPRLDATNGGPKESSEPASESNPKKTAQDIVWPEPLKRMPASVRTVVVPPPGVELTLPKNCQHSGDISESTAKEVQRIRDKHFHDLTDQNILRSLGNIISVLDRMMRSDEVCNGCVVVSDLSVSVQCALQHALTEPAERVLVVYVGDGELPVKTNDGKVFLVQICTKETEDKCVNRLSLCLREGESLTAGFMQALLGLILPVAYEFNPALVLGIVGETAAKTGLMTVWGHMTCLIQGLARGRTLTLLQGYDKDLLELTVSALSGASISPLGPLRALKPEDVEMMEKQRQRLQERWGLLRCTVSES

[4] = target: T5, Polyamine deacetylase HDAC10 (Homo sapiens, UniProt Q969S8); assay: Inhibition of HDAC10 (unknown origin)
T5 sequence (Q969S8 whole entry): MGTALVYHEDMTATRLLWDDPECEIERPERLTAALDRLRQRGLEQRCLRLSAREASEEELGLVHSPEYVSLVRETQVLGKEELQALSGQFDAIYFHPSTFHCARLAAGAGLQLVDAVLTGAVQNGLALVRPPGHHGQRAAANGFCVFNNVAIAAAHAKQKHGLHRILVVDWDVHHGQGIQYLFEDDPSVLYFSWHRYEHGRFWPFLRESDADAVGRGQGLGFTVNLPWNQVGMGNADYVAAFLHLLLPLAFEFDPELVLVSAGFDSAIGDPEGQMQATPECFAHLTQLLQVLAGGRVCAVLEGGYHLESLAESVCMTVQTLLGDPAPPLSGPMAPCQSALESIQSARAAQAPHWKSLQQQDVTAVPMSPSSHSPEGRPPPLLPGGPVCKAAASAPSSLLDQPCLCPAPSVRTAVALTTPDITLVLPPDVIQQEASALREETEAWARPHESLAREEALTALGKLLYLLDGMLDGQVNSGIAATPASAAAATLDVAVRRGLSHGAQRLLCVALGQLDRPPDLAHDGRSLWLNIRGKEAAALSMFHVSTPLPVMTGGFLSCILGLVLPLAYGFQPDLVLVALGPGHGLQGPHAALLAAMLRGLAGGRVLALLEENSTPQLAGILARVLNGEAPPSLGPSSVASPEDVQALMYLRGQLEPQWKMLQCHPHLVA

Histone deacetylase 11 = target: T6, Histone deacetylase 11 (Homo sapiens, UniProt Q96DB2); assay: Inhibition of HDAC11 (unknown origin)
T6 sequence (Q96DB2 whole entry): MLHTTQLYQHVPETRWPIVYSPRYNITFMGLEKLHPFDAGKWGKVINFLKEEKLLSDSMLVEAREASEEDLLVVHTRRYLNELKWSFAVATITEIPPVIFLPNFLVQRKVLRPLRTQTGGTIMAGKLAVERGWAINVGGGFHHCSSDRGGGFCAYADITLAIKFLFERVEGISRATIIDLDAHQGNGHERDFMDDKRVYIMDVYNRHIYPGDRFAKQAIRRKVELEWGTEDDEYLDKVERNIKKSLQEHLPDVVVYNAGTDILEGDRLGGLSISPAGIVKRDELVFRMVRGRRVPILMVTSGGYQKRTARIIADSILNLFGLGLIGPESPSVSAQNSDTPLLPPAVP

Histone deacetylase 3/Nuclear receptor corepressor 2 (HDAC3/NCoR2), sequence (O15379 whole entry, the tested form may be a part): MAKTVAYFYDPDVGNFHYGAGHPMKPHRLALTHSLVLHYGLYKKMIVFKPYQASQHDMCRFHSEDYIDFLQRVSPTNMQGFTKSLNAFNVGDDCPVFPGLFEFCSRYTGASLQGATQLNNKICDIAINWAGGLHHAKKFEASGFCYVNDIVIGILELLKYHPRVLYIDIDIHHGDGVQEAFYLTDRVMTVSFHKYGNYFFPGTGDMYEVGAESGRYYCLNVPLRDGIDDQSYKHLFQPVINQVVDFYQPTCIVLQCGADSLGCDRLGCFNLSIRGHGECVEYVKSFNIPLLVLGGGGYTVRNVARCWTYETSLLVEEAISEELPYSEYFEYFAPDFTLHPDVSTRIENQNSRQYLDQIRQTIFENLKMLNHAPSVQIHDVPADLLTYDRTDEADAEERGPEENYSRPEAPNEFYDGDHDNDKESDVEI
Histone deacetylase 3/Nuclear receptor corepressor 2 (HDAC3/NCoR2), sequence (Q9Y618 whole entry, further chain, the tested form may be a part): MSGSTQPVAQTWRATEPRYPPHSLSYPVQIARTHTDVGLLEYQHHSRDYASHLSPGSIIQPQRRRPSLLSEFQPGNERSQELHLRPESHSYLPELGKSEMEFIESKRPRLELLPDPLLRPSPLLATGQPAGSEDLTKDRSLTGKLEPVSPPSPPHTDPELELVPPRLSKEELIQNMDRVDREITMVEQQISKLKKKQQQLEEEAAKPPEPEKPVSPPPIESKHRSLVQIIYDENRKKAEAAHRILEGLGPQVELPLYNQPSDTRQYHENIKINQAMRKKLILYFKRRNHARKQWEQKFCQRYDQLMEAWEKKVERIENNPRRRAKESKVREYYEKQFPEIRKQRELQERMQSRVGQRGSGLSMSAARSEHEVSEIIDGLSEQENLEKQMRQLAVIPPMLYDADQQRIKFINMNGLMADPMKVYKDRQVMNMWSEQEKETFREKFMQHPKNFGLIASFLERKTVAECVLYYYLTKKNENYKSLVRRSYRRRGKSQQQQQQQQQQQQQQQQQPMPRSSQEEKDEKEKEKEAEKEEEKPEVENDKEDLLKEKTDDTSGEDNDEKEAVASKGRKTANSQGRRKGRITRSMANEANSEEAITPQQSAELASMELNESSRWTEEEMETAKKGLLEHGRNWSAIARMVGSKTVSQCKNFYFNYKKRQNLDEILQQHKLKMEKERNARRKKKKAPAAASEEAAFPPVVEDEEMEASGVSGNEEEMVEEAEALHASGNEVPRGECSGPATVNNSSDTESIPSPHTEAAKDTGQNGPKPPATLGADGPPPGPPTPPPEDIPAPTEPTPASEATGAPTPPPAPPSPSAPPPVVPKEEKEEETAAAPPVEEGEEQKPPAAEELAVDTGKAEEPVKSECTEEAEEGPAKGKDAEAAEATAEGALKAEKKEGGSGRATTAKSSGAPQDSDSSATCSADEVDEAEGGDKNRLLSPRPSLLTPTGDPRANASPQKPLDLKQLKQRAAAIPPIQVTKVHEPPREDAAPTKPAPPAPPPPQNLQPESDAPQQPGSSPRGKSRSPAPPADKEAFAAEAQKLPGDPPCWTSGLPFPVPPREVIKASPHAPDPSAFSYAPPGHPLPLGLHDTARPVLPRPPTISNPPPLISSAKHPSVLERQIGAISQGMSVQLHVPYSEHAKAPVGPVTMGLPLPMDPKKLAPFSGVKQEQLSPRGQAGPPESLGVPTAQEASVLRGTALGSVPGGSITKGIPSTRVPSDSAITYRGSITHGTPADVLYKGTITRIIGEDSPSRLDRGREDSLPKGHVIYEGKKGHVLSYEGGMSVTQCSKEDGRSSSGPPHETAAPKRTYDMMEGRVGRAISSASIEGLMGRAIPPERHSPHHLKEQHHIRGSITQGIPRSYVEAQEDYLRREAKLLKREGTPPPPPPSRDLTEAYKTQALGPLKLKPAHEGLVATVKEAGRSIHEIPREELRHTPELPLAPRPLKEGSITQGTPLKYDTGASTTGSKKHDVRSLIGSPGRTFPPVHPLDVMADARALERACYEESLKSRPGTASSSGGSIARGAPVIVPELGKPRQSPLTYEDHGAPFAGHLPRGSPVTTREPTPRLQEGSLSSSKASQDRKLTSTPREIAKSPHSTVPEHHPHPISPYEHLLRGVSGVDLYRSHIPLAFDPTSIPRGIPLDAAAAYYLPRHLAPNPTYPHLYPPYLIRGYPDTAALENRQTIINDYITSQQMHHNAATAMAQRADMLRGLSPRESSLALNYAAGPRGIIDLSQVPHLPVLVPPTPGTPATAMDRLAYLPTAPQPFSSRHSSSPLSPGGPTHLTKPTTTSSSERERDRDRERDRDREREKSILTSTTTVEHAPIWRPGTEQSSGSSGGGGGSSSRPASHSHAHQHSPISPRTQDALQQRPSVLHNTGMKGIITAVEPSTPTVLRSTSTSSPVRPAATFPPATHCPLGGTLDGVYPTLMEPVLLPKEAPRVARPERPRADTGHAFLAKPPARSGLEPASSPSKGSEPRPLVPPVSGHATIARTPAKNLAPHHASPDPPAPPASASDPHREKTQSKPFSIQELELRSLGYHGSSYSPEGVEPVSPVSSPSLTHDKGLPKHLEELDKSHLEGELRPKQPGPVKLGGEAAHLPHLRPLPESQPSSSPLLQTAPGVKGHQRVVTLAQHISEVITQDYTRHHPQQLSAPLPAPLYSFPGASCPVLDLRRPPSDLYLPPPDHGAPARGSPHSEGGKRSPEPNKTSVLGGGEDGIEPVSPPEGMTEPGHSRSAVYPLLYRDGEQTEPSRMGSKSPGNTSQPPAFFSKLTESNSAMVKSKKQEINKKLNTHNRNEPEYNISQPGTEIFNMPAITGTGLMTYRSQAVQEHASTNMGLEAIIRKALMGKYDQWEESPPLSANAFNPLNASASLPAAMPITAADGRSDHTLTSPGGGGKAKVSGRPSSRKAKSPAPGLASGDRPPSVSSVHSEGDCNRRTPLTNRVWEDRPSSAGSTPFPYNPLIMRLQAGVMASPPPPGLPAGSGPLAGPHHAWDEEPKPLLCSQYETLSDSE
Histone deacetylase 9, sequence (Q9UKV0 whole entry, the tested form may be a part): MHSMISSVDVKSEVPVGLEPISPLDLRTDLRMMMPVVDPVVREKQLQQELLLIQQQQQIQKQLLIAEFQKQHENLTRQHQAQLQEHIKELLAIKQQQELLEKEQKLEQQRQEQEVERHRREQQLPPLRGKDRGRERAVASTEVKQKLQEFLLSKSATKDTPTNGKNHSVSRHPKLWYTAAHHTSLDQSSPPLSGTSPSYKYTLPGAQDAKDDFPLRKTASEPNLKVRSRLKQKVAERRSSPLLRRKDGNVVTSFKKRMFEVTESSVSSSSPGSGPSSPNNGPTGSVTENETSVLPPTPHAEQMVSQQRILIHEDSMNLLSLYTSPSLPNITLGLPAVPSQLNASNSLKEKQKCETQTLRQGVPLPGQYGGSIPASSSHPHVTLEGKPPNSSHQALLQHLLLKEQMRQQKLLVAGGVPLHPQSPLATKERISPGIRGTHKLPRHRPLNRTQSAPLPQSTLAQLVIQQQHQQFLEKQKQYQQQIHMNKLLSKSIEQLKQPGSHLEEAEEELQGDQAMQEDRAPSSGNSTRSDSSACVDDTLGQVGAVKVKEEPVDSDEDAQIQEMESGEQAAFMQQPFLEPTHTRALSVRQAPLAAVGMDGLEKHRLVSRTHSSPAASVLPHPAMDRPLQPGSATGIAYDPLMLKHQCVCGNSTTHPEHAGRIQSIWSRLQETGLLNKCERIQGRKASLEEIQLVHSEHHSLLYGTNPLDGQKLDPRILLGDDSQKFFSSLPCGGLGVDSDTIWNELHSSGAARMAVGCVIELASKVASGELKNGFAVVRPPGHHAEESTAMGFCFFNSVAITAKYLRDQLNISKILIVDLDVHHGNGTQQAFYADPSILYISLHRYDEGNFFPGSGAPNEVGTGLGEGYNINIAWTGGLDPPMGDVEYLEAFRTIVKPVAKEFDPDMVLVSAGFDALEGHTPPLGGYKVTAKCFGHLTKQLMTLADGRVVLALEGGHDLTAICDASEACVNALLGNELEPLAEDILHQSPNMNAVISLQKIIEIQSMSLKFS
Histone deacetylase 5, sequence (Q9UQL6 whole entry): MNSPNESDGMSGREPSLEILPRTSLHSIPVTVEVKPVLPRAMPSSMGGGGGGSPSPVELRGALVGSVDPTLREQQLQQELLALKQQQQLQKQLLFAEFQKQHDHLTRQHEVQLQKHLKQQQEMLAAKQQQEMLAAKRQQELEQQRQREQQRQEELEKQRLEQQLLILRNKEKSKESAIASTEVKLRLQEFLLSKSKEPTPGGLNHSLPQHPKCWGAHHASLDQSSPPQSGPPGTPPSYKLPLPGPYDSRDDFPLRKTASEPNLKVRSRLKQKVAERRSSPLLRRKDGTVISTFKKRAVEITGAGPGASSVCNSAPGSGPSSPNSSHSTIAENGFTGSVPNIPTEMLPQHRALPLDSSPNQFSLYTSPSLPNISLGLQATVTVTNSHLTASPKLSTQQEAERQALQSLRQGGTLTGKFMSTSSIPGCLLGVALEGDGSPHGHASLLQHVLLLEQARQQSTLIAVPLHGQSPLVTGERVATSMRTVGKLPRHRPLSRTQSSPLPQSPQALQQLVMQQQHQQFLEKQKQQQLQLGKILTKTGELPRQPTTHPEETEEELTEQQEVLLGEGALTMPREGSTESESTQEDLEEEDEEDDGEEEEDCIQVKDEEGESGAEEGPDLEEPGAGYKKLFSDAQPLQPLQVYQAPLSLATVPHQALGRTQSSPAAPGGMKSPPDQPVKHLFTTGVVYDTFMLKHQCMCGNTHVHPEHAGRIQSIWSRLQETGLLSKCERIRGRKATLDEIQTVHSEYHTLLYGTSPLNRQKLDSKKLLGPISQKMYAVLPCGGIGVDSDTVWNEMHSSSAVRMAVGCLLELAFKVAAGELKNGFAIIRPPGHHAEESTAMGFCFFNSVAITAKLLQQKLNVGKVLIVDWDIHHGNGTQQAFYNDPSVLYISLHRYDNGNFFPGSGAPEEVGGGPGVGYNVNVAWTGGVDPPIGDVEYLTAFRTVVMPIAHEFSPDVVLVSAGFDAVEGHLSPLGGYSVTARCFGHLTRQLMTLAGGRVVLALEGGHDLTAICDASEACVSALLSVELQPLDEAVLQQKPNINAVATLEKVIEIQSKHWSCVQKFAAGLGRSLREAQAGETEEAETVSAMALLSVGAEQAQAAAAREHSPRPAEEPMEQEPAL

## Nc1ccc(-c2cccs2)cc1NC(=O)c1ccc2nc(N3CCNCC3)ccc2c1
Histone deacetylase 5
  IC50: > 20000 nM
Histone deacetylase 4
  IC50: > 20000 nM
Histone deacetylase 7
  IC50: > 20000 nM
[1]
  IC50: > 20000 nM
Histone deacetylase 9
  IC50: > 20000 nM
Histone deacetylase 2
  IC50: 26 nM
Histone deacetylase 8
  IC50: > 20000 nM
[2]
  IC50: 1000 nM

## NCCCNCCCCCC(=O)NO
[3]
  IC50: 120 nM

## Nc1cc(F)ccc1NC(=O)c1ccc(CNC(=O)/C=C/c2cccnc2)cc1 [TUCIDINOSTAT]
[4]
  IC50: 100 nM
Histone deacetylase 11
  IC50: 400 nM
